These results are taken from paper PMC8253220, “Molecular design, synthesis and in vitro biological evaluation of thienopyrimidine–hydroxamic acids as chimeric kinase HDAC inhibitors: a challenging approach to combat cancer” (Journal of Enzyme Inhibition and Medicinal Chemistry, 2021).

Where “and” joins values, the source holds several entries; their conditions need not be identical. Identical values can stand only once.

Assay [1] has as its target T1, HDAC6 (Homo sapiens, UniProt Q9UBN7).
T1 construct: purchased BPS Bioscience 50006
T1 sequence (Q9UBN7 1-1215): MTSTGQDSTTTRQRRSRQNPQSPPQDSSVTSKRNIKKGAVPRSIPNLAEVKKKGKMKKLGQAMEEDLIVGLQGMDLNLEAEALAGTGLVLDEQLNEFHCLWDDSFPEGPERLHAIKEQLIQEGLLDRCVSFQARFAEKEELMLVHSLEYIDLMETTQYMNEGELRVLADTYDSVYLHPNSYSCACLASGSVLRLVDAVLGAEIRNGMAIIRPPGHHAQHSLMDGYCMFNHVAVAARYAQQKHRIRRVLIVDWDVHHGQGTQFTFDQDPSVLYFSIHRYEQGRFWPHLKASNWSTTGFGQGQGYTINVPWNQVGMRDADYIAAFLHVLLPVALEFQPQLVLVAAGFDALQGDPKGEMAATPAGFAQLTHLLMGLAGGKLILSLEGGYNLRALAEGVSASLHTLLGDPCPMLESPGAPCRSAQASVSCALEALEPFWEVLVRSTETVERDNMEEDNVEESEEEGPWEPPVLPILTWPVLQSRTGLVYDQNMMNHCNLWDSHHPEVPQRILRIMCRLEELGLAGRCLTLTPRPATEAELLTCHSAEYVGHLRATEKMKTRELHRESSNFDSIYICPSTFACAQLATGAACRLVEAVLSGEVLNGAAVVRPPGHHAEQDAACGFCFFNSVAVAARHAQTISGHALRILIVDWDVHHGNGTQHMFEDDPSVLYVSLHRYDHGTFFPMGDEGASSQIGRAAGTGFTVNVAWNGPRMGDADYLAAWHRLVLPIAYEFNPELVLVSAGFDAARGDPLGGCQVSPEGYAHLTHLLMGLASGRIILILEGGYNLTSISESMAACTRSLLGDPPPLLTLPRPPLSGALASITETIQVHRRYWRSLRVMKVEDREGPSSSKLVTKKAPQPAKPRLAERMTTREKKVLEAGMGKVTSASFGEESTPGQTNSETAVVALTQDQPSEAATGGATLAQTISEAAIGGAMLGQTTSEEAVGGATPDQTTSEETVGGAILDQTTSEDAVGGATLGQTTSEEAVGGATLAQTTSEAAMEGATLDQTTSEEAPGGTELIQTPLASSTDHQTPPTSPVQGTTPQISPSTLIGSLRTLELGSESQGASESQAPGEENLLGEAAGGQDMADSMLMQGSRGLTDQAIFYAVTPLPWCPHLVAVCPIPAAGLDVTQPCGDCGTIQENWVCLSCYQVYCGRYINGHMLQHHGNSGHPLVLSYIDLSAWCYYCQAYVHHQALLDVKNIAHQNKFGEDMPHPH
Put plainly: In vitro HDAC6 inhibitory assay (BPS Bioscience, fluorogenic). The format is biochemical. The conditions noted are these: 10 µM. As to the method: (1 picture or pasted object on this page, not shown here)
HDAC activity assays were performed in duplicates at each concentration. The

Assay [2] concerns SK-MEL-2. Put plainly: NCI one-dose screen. In kind it is cell-based, human. The conditions noted are these: Melanoma SK-MEL-2, 10 µM single dose. The method in brief:
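Compounds were tested at a single dose of 10 μM across the full NCI-60 cell line panel. Growth was expressed as percent growth relative to untreated control cells, reported as percent inhibition.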

In assay [3] the test system is RPMI-8226. As to the kind of experiment: NCI one-dose screen. In kind it is cell-based, human. The settings on record: Leukemia RPMI-8226, 10 µM single dose. The method in brief:
(§1)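 At 10 μM, a single concentration, compounds were evaluated for antiproliferative effect in the NCI 60-line screen, with growth expressed relative to untreated control cells.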

Assay [4] has as its system 786-0. As to the kind of experiment: NCI one-dose screen. In kind it is cell-based, human. The conditions noted are these: Renal 786-0, 10 µM single dose. The method in brief:
as §1

The test system of assay [5] is SK-MEL-5. Put plainly: NCI one-dose screen. In kind it is cell-based, human. The conditions noted are these: Melanoma SK-MEL-5, 10 µM single dose. The method in brief:
as §1

The test system of assay [6] is HOP-92. As to the kind of experiment: NCI one-dose screen. The format is cell-based, human. The settings on record: NSCLC HOP-92, 10 µM single dose. The method in brief:
as §1

The subject of assay [7] is UO-31. As to the kind of experiment: NCI one-dose screen. In kind it is cell-based, human. The conditions noted are these: Renal UO-31, 10 µM single dose. The method in brief: (§2)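 Following the standard NCI-60 protocol, compounds were applied once at 10 μM to all 60 cancer lines. Read-out is percent growth versus untreated controls, expressed as inhibition %.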
Assay [8] has as its system MDA-MB-468. As to the kind of experiment: NCI one-dose screen. In kind it is cell-based, human. The settings on record: Breast MDA-MB-468, 10 µM single dose. The method in brief:
(§3)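 In vitro antiproliferative testing: NCI-60 panel, initial single dose 10 μM, inhibition % derived from percent growth of treated versus untreated control cells.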

The subject of assay [9] is SNB-75. As to the kind of experiment: NCI one-dose screen. The format is cell-based, human. The settings on record: CNS SNB-75, 10 µM single dose. The method in brief: as §2
Assay [10] deals with HCC-2998. As to the kind of experiment: NCI one-dose screen. The settings on record: Colon HCC-2998, 10 µM single dose. In kind it is cell-based, human. The method in brief:
as §1

Assay [11] deals with HT29. As to the kind of experiment: NCI one-dose screen. In kind it is cell-based, human. The conditions noted are these: Colon HT29, 10 µM single dose. The method in brief: as §1
Assay [12] concerns OVCAR-4. Put plainly: NCI one-dose screen. The format is cell-based, human. The settings on record: Ovarian OVCAR-4, 10 µM single dose. The method in brief: as §1
Assay [13] concerns KM12. As to the kind of experiment: NCI one-dose screen. In kind it is cell-based, human. The settings on record: Colon KM12, 10 µM single dose. The method in brief: as §3
Assay [14] concerns OVCAR-5. As to the kind of experiment: NCI one-dose screen. In kind it is cell-based, human. The settings on record: Ovarian OVCAR-5, 10 µM single dose. The method in brief:
as §1

Take `Cc1c(C(=O)NO)sc2ncnc(Nc3ccc(NC(=O)Nc4ccccc4)cc3)c12` [Compound 7a, 1–(4-(6-(hydroxycarbamoyl)-5-methylthieno[2,3-d]pyrimidin-4-ylamino)phenyl)-3-phenylurea]: the “Mean % inhibition HDAC6” value in assay [1] is given as 5%. Also, 10 µM produced 7% inhibition in [1]. In addition, the “Growth Percent” value in assay [2] is 107.8%; in assay [3], 105.4% and 105.45%; in [4], 95.9% and 95.93%; in assay [5], 101.0% and 101.07%; in [6], 117.3% and 117.36%; in assay [7], 74.6% and 74.65%. Moreover, the “Growth Percent” value in assay [8] was 111.9% and 111.92%; in assay [9], 75.5% and 75.56%; in [10], 99.3% and 99.38%; in assay [11] it was 94.7% and 94.78%; in [12], 94.1% and 94.11%; in assay [13], 94.8% and 94.85%. Also, the “Growth Percent” value in assay [14] was 105.3% and 105.35%.
As to `Cc1c(C(=O)NCCC(=O)NO)sc2ncnc(Nc3ccc(NC(=O)Nc4cccc(C(F)(F)F)c4)cc3)c12` [Compound 11c, 1–(4-(6-((3-(hydroxyamino)-3-oxopropyl)carbamoyl)-5-methylthieno[2,3-d]pyrimidin-4-ylamino)phenyl)-3–(3-(trifluoromethyl)phenyl)urea], 10 µM produced 8% inhibition in assay [1]. In addition, the “Growth Percent” value is 108.7% and 108.73% in [2]; 102.2% and 102.26% in assay [3]; 115.6% and 115.64% in [4]; 97.1% and 97.12% in [5]; 115.4% in assay [6]; 87.0% and 87.09% in [7]. In addition, the “Growth Percent” value is 97.1% and 97.16% in assay [8]; 78.8% in assay [9]; 111.5% and 111.56% in assay [10]; 109.8% and 109.85% in assay [11]; 105.0% and 105.02% in assay [12]; 100.1% and 100.15% in assay [13]. Besides, the “Growth Percent” value in assay [14] was 104.4% and 104.48%.
